Experimental data reported in patent US8980646B2, “Proteolytic and covalent antibodies” (priority 2003, dated 2015).

Experiments:
[1] = test system: human IgG HS-2; test: Irreversible inhibition of HS-2 IgG-catalyzed [Tyr10-125I]-VIP cleavage; format: biochemical; details: for IC50: IgG 2 μM preincubated 16 h with CRA, unreacted CRA removed
Experimental: FIG. 23. Inhibition of polyclonal antibody catalyzed VIP cleavage by VIP-CRA 3 and hapten CRA 1. Panel A: Reversed-phase HPLC profiles showing cleavage of [Tyr^10-^125I]-VIP at multiple sites by human IgG HS-2. [Tyr^10-^1251I]-VIP incubated in the presence (●) or absence (◯) of HS-2 IgG (2 μM) for 16 h and subjected to HPLC [Nova-pak C, 3.9×150 mm; 0.1% TFA in water: 0.1% TFA in 80% acetonitrile 95:5 for 10 min, 95:5 to 30:70 in 55 min, 30:70 to 0:100 in 5 min, 0:100 for 5 min (0.5 ml/min)]. Shown are values of ^125I radioactivity recovered in the HPLC fractions (0.5 ml). Panel B: Irreversible inhibition of HS-2 IgG-catalyzed [Tyr^10-^125I]-VIP cleavage by VIP-CRA 3 and hapten CRA 1. IgG (2 μM) was preincubated for 16 h in the absence or presence of increasing concentrations of VIP-CRA 3 (●) or hapten CRA 1 (◯). Following removal of unreacted CRA by chromatography on immobilized Protein G, the residual catalytic activity of the IgG was measured using [Tyr^10-^125I]-VIP as substrate. Data are means±SD. Control HS-2 IgG incubated in the absence of CRAs cleaved 2791 c.p.m. [Tyr^10-^125I]-VIP.
Preparation and assay of cleavage of [Tyr^10-^125I]-VIP were described previously (24). To determine if the CRAs inhibit Abs irreversibly, IgG (2 μM) was incubated (37° C.) with 1 or 3 for 16 h in 50 mM Tris.HCl-0.1M Gly (pH 8.0) containing 2.5% DMSO and 0.025% Tween 20. Unreacted 1 or 3 was then removed by chromatography of the reaction mixtures (0.2 ml) on protein G columns as in ref35 (50 μl settled gel; washed with 0.8 ml 50 mM Tris.HCl, pH 7.4; eluted with 0.2 ml 0.1 M Gly.HCl, pH 2.7; neutralized with 1M Tris.HCl, pH 9). Fifty μl aliquots of the recovered IgG (and IgG-CRA complexes) were incubated with [Tyr^10-^125I]-VIP (86,000 c.p.m.) for 18 h and peptide cleavage was determined by measuring the radioactivity soluble in trichloroacetic acid. Control IgG samples were incubated without CRA, chromatographed and analyzed for VIP cleaving activity in the same way.

[2] = test system: anti-VIP IgG c23.5 light chain; format: binding, mouse
[3] = molecular target: gp120-CRA III (HIV-1, MN strain) (UniProt P05877); test: ELISA, serum 1:100, immobilized III
[4] = molecular target: exEGFR protein CRA IV (human) (UniProt P00533)
[5] = molecular target: HIV-1 gp120 (MN strain, recombinant, baculovirus expression system) (HIV-1, MN strain) (UniProt P05877); test: ELISA, serum 1:100, immobilized gp120
[6] = test system: IgG; format: biochemical, human
[7] = test system: murine splenocytes; test: Hapten CRA I staining of splenocytes / B cells (microscopy, flow cytometry, extract affinity chromatography)
[8] = test system: polyclonal murine IgM; format: biochemical, mouse
[9] = test system: peptide-AMC substrates; test: Peptide-AMC cleavage by IgM, IgG and Fab (fluorimetry); format: biochemical; details: 675 nM pepsin; other conditions as FIG. 31B
[10] = Irreversible hapten CRA I binding by IgG, scFv and trypsin (SDS-electrophoresis of biotin-containing adducts); details: CRA I 100 μM; linear regression of FIG. 8B data

VIP-CRA 3: N-terminally biotinylated VIP with amidino phosphonate diester on the Lys20 side chain; called VIP-CRA 4 in Examples VI, XI
VIP-CRA concentration giving near-complete inhibition of catalysis ([1]; IgG 2 μM preincubated 16 h): > 20 µM | IC50 [1]: 7 µM

vasoactive intestinal peptide [VIP]
inhibition of formation of VIP-CRA 3 adducts with anti-VIP light chain [2]: 41.0±7%

nonimmune mouse IgG / nonimmune mouse serum (antibody)
A490 [3]: -0.002 A490 | kobs (pseudo-first order rate constant for accumulation of adducts) [4]: < 0.0072 h⁻¹ | A490 [5]: 0.001 A490

N=C(N)c1ccc(C(NC(=O)CCCCCNC(=O)CCCC[C@@H]2SC[C@@H]3NC(=O)N[C@@H]32)P(=O)(Oc2ccccc2)Oc2ccccc2)cc1 (stereo partly drawn) [hapten CRA I, Diphenyl N-(6-biotinamidohexanoyl)amino(4-amidinophenyl)methanephosphonate]
effect on IgG-catalyzed peptide-MCA cleavage [6]: inhibited | cell viability following incubation (trypan blue exclusion) [7]: No loss of viability | CRA I-stained cells positive for B cell marker CD19 ([7]; 3 repeat experiments): 82±4% | total CRA content of B cells adsorbed by immobilized Abs to μ and κ/λ chains ([7]; B cell extract, densitometry): Eighty | cells displaying intense staining ([7]; N 3 experiments, counting 400 lymphocytes, UV microscope): 11±2 | minority subpopulation with very high fluorescence intensity ([7]; flow cytometry): 14% | CRA I-treated cells with fluorescence intensity exceeding compound II-treated cells ([7]; flow cytometry, 100 μM, 4 hours): Seventy nine | inhibition of murine IgM activity [8]: 9-100% | IC50 ([8]; read-out: IC50, murine IgM Glu-Ala-Arg-AMC cleavage): 42 µM | IC50 [1]: 36 µM

pepsin: purified porcine pepsin used as control
cleavage of Glu-Ala-Arg-AMC by pepsin [9]: did not cleave

B1: trypsin: porcine trypsin, type IX, Sigma (protein, UniProt P00761 9-231, looked up)
Trypsin: IVGGYTCAANSIPYQVSLNSGSHFCGGSLINSQWVVSAAHCYKSRIQVRLGEHNIDVLEGNEQFINAAKIITHPNFNGNTLDNDIMLIKLSSPATLNSRVATVSLPRSCAAAGTECLISGWGNTKSSGSSYPSLLQCLKAPVLSDSSCKSSYPGQITGNMICVGFLEGGKDSCQGDSGGPVVCNGQLQGIVSWGYGCAQKNKPGVYTKVCNYVNWIQQTIAAN
velocity of covalent I adduct formation [10]: 11.9±0.6 AAU/min
